Data from US12584105B2, “Autologous cell replacement therapy for Parkinson's disease” (The McLean Hospital Corporation, priority 2019, dated 2026).

Assays:
[1] = tested on: undifferentiated C4 cells (human iPSCs); experiment: Quercetin treatment of undifferentiated hiPSCs (Trypan blue, hemocytometer); format: cell-based
Procedure: To test the effect of Quercetin on human iPSC removal, human iPSCs were plated on 6 well plates. Cells were treated with each concentration of Quercetin (5, 10, 20, 40, and 100 μM) for 2, 6, 16, and 24 hours. After each time point, Quercetin containing medium was replaced with fresh medium and cells cultured for 48 hours from the initial Quercetin treatment time. Cells were dissociated using TrypLE and cell viability was measured using Trypan blue exclusion and hemocytometer.
The most critical issue for hPSC-based cell therapy is to establish safety by removing residual undifferentiated cells with neoplastic potential. Based on the previous finding that BIRC5 (encoding survivin) is highly expressed in hPSCs compared to somatic cells (40), we hypothesized that chemical inhibition of survivin would selectively eliminate remaining undifferentiated hiPSCs. However, since survivin is known to be important for neuronal precursors (41, 42), it is important to test whether this strategy interferes with mDAP generation. Among survivin inhibitors (40), we chose the flavonoid quercetin (3,3′,4′,5,7-pentahydroxyflavone) because this natural compound is present at high concentration in commonly consumed vegetables and fruits (43). We first treated 100,000 undifferentiated C4 cells with 5, 10, 20, 40, and 100 μM quercetin for 2, 6, 16, and 24 hours. […]

[2] = tested on: D9 C4 cells (mostly neuronal precursors); experiment: Quercetin treatment of D9 differentiating cells, outcome on D11; format: cell-based, human; settings: different concentrations (5-100 μM) for 16 hours on D9
Description: The most critical issue for hPSC-based cell therapy is to establish safety by removing residual undifferentiated cells with neoplastic potential. Based on the previous finding that BIRC5 (encoding survivin) is highly expressed in hPSCs compared to somatic cells (40), we hypothesized that chemical inhibition of survivin would selectively eliminate remaining undifferentiated hiPSCs. However, since survivin is known to be important for neuronal precursors (41, 42), it is important to test whether this strategy interferes with mDAP generation. Among survivin inhibitors (40), we chose the flavonoid quercetin (3,3′,4′,5,7-pentahydroxyflavone) because this natural compound is present at high concentration in commonly consumed vegetables and fruits (43). We first treated 100,000 undifferentiated C4 cells with 5, 10, 20, 40, and 100 μM quercetin for 2, 6, 16, and 24 hours. After washing with fresh media, cells were further cultured for a total of 48 hours. […] To test whether quercetin affects survival of mDAPs, we treated D9 C4 cells (mostly neuronal precursors) with different concentrations of quercetin for 16 hours and examined outcome on D11.

[3] = tested on: undifferentiated C4 cells; experiment: Colony forming assay (AP staining) of C4 cells diluted among hDFs; format: cell-based, human
Procedure: (§1) For colony forming assay, each cell dilution was cultured for 6 days in E8 medium and pluripotent colonies were identified by AP staining. For the quercetin removal of undifferentiated cells, cells were treated with 40 μM quercetin for 16 hours and cultured in fresh E8 medium. For fluorescence activated cell sorting (FACS), C4 cells were dissociated using TrypLE and filtered through a 70 μm cell strainer. Single cell suspensions were first fixed with 4% formaldehyde for 10 mins and suspended in permeabilization buffer for 15 min on ice. After blocking for 30 min, cells were incubated with primary labeled antibodies (PE conjugated anti SSEA-4, TRA-1-60) for 1 hour on ice in the dark. After washing with PBS with 1% FBS, FACS analysis was performed using a BD Accuri C6 system (BD Bioscience) and data analyses were carried out according to manufacturer's instructions. Fluorochrome matched isotype controls were used and subtracted during analysis. For qRT-PCR assay, total RNA from all dilutions was extracted and subjected to qRT-PCR to determine OCT4 cycle times (Ct) value. OCT4 copy numbers were calculated from the equation curve that was generated from qRT-PCR of purified OCT4 partial sequence. Then, OCT4 copy numbers were plotted against PSC numbers.

[4] = tested on: undifferentiated C4 cells; experiment: OCT4 qRT-PCR assay for undifferentiated cells; format: cell-based, human; settings: D14, D21 and D28 after quercetin treatment (40 μM at D9 for 16 hours)
Procedure: as §1

[5] = tested on: NANOG+ undifferentiated cells; experiment: NANOG immunostaining of D14 cells; format: cell-based, human; settings: D14, with quercetin treatment
Procedure: hiPSC derived dopaminergic neurons were washed with phosphate-buffered saline (PBS) (with Ca^2+ and Mg^2+) and fixed with 4% formaldehyde in PBS (pH 7.4) for 10 mins. Cells were incubated for 1 hr in blocking solution (0.3% Triton X-100 and 1% horse serum in PBS) at room temperature. Cells were incubated with primary antibodies in PBS containing 0.3% Triton X-100 and 1% horse serum overnight. Cells were then incubated with the proper fluorescence-conjugated secondary antibodies with Hoechst 33342 for nuclei staining at room temperature for 1 hr. Cell images were obtained by confocal microscopy (KEYENCE, Osaka, Japan). Data regarding specific cell populations were determined from microscopic images using ImageJ software (11). To measure apoptotic cells, cells were stained for cleaved caspase 3, an apoptotic marker, and Hoechst 33342, a DNA-binding nuclear dye. After staining with Hoechst 33342, compacted chromatin is brighter than in normal cells, and the condensed nuclei were counted by fluorescence microscopy. Data regarding specific cell populations were determined from microscopic images by ImageJ software.

[6] = tested on: undifferentiated iPSCs; experiment: Residual undifferentiated iPSCs in final cell product (immunostaining and real-time PCR); format: cell-based, human; settings: final cell products at day 28 after quercetin
Description: After treatment with quercetin, the final cell products (at day 28) had no detectable remaining undifferentiated iPSCs (with an upper boundary of the 95% confidence interval of <1 undifferentiated cell per 1 billion day-28 differentiated cells), on the basis of immunostaining and real-time polymerase chain reaction-based assays. Serotonergic neurons, a potential cause of graft-induced dyskinesia (Olanow et al. Ann Neurol 2003; 54:403-14), were not detected in the final product.

[7] = tested on: voltage-gated Na+ channels; format: cell-based, human

| SMILES | efficiency of elimination of undifferentiated hiPSCs [1] [%] | viable cells ([1]; 100,000 undifferentiated C4 cells, >20 μM quercetin for >16 hours, cultured for a total of 48 hours) | cell viability and cell number at D11 [2] | AP+ colonies ([3]; 40 μM quercetin for 16 hours, up to 10^5 hiPSCs plated, 6 days culture) | efficacy of quercetin treatment ([3]; colony forming assay) [%] | calculated number of undifferentiated cells [4] | NANOG+ cells [5] | remaining undifferentiated iPSCs, upper boundary of the 95% confidence interval [6] | transient inward currents evoked by voltage pulses from −70 mV to +40 mV [7] |
| --- | --- | --- | --- | --- | --- | --- | --- | --- | --- |
| O=c1c(O)c(-c2ccc(O)c(O)c2)oc2cc(O)cc(O)c12 [quercetin, 3,3′,4′,5,7-pentahydroxyflavone] | > 99.99 | undetectable | Neither cell viability nor number was affected | no AP′ colonies detected | > 99.99 | less than 1 cell per 100,000 cells | none were detected | < 1 undifferentiated cell per 1 billion day-28 differentiated cells | – |
| NC1=N[C@H](O)[C@H]2[C@H]3O[C@]4(O)O[C@@H]([C@@H](O)[C@@]2(N1)[C@@H]4O)[C@]3(O)CO [TTX, tetrodotoxin] | – | – | – | – | – | – | – | – | completely blocked |
